The series concerns the target ATP-dependent translocase ABCB1 (Homo sapiens, UniProt P08183). The series is described as follows: TP_TRANSPORTER: transepithelial transport (basal to apical) in Caco-2 cells. The series is classed as functional, cell-based. Background: Caco-2 cells form a polarised layer with tight junctions and transporters.

Each structure is given as a SMILES string.

Chain of ATP-dependent translocase ABCB1 (P08183 whole entry): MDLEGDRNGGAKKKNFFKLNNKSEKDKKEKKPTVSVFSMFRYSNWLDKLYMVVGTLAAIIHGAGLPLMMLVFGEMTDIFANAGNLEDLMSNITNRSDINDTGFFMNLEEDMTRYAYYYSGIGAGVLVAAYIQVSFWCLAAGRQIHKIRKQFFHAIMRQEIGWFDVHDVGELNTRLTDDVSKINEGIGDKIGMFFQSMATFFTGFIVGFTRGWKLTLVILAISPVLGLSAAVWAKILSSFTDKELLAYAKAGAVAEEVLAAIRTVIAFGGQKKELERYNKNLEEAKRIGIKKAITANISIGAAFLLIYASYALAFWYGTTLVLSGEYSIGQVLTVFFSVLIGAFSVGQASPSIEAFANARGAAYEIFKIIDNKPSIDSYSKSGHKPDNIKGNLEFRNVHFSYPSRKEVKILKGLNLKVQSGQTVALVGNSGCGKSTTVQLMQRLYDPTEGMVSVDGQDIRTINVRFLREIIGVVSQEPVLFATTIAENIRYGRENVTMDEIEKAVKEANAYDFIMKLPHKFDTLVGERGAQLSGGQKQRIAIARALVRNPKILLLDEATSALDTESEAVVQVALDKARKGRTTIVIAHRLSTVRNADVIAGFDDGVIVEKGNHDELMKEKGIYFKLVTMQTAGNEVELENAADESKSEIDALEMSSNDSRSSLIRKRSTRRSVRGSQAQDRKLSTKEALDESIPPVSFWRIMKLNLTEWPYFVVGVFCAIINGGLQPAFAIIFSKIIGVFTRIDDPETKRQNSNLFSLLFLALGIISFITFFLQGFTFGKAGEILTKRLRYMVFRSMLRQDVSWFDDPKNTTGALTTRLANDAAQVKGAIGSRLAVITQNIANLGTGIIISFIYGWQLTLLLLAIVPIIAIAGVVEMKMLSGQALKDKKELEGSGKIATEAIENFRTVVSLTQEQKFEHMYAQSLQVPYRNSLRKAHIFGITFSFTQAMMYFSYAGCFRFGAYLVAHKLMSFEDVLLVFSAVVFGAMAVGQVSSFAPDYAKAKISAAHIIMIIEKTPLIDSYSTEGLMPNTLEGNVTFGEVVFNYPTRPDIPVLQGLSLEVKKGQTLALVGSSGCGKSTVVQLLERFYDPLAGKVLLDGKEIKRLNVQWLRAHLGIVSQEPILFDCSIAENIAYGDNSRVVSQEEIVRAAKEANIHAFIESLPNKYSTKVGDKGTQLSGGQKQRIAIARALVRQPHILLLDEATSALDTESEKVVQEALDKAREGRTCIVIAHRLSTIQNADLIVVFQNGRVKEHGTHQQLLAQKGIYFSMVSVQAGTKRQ

With `CNC(=C[N+](=O)[O-])NCCSCc1ccc(CN(C)C)o1` [RANITIDINE], the Activity entry was “substrate [+]”.

For the origin of these results see ChEMBL document CHEMBL2074067, “TP-search Transporter Database” (J Physiol, 1994).
